Measured values: ChEMBL document CHEMBL1121424, “Orally active cephalosporins and penicillins” (J Med Chem, 1980)
≈ marks a conversion by molar mass, not a printed value.

Tests used:
Enterobacter cloacae = assay: Tested for inhibition of visible growth of Enterobacter cloacae; assay type: functional
Klebsiella aerogenes = assay: Tested for inhibition of visible growth of Enterobacter aerogenes; assay type: functional
Escherichia coli [1] = assay: Tested for inhibition of visible growth of Escherichia coli; assay type: functional
Mus musculus [2] = species on record: Mus musculus; assay: Tested for the antimicrobial activity against Staphylococcus aureus (M202) in mice, perorally; assay type: functional; conditions: po
Mus musculus [3] = assay: Tested for the antimicrobial activity against Staphylococcus aureus (M202) in mice, subcutaneously; assay type: functional; conditions: sc
Mus musculus [4] = species on record: Mus musculus; assay: Tested for the antimicrobial activity against Streptococcus pneumoniae (D137) in mice, perorally; assay type: functional; conditions: po
Mus musculus [5] = assay: Tested for the antimicrobial activity against Streptococcus pneumoniae (D137) in mice, subcutaneously; assay type: functional; conditions: sc
Mus musculus [6] = assay: Tested for the antimicrobial activity against Streptococcus pneumoniae (D815) in mice, subcutaneously; assay type: functional; conditions: sc
Mus musculus [7] = species on record: Mus musculus; assay: Tested for the antimicrobial activity against Streptococcus pneumoniae (D815) in mice, perorally; assay type: functional; conditions: po
Mus musculus [8] = species on record: Mus musculus; assay: Tested for the antimicrobial activity against Streptococcus pyogenes (ST139) in mice, perorally; assay type: functional; conditions: po
Mus musculus [9] = assay: Tested for the antimicrobial activity against Streptococcus pyogenes (ST139) in mice, subcutaneously; assay type: functional; conditions: sc
Mus musculus [10] = species on record: Mus musculus; assay: Tested for the antimicrobial activity against Streptococcus pyogenes (St141) in mice, perorally; assay type: functional; conditions: po
Mus musculus [11] = assay: Tested for the antimicrobial activity against Streptococcus pyogenes (St141) in mice, subcutaneously; assay type: functional; conditions: sc
Mus musculus [12] = assay: Tested for the antimicrobial activity against Staphylococcus aureus (M240) in mice, subcutaneously; assay type: functional; conditions: sc
Pseudomonas aeruginosa = assay: Tested for inhibition of visible growth of Pseudomonas aeruginosa; assay type: functional
Proteus mirabilis = assay: Tested for inhibition of visible growth of Proteus mirabilis; assay type: functional
[13] = Tested for inhibition of visible growth of Salmonella schottmuelleri; assay type: functional
Staphylococcus aureus [14] = assay: Tested for inhibition of visible growth of Staphylococcus aureus, benzyl-penicillin sensitive; assay type: functional
Streptococcus pyogenes [15] = assay: Tested for inhibition of visible growth of Streptococcus pyogenes; assay type: functional
Enterococcus faecalis = assay: Tested for inhibition of visible growth of Streptococcus faecalis; assay type: functional
Streptococcus pneumoniae [16] = assay: Tested for inhibition of visible growth of Streptococcus pneumoniae; assay type: functional
Mus musculus [17] = species on record: Mus musculus; assay: Tested for the antimicrobial activity against Staphylococcus aureus (M240) in mice, perorally; assay type: functional; conditions: po
Klebsiella pneumoniae = assay: Tested for inhibition of visible growth of Klebsiella pneumoniae; assay type: functional
Staphylococcus aureus [18] = assay: Tested for inhibition of visible growth of Staphylococcus aureus; assay type: functional
Staphylococcus aureus [19] = assay: Tested for the antimicrobial activity against Staphylococcus aureus; assay type: functional
Streptococcus pneumoniae [20] = assay: (§1) Tested for the antimicrobial activity against Streptococcus pneumoniae in mice; assay type: functional
Streptococcus pneumoniae [21] = assay: as §1; assay type: functional; remark: listed apart in the source
Streptococcus pyogenes [22] = assay: (§2) Tested for the antimicrobial activity against Streptococcus pyogenes in mice; assay type: functional
Streptococcus pyogenes [23] = assay: as §2; assay type: functional; remark: listed apart in the source
Mus musculus [24] = species on record: Mus musculus; assay: Tested for the antimicrobial activity against Staphylococcus aureus, benzyl-penicillin resistant in mice, perorally; assay type: functional; conditions: po
Staphylococcus aureus [25] = assay: Tested for the antimicrobial activity against Staphylococcus aureus, benzyl-penicillin sensitive in mice, perorally; assay type: functional; conditions: po
[26] = Tested for the peak time in mice following 39 mg/kg oral dose of cephalosporin; assay type: ADME, organism-based; design: dose 39 mg/kg, route oral; conditions: mouse, in vivo, read-out: Peak time (converted)
Escherichia coli [27] = assay: Tested for the antimicrobial activity against Escherichia coli in mice perorally; assay type: functional; conditions: po
Escherichia coli [28] = assay: Tested for the antimicrobial activity against Escherichia coli in mice; assay type: functional
[29] = (§3) Tested for the antimicrobial activity against Salmonella schottmuelleri in mice; assay type: functional
[30] = as §3; assay type: functional; remark: listed apart in the source

| SMILES | MIC (Enterobacter cloacae) [µg/mL] | MIC (Klebsiella aerogenes) [µg/mL] | MIC (Escherichia coli [1]) [µg/mL] | MIC (Proteus mirabilis) [µg/mL] | MIC [13] [µg/mL] | MIC (Staphylococcus aureus [14]) [µg/mL] | MIC (Streptococcus pyogenes [15]) [µg/mL] | MIC (Enterococcus faecalis) [µg/mL] | MIC (Streptococcus pneumoniae [16]) [µg/mL] | MIC (Klebsiella pneumoniae) [µg/mL] | MIC (Staphylococcus aureus [18]) [µg/mL] | ED50 (Staphylococcus aureus [19]) [mg/kg] | ED50 (Streptococcus pneumoniae [20]) [mg/kg] | ED50 (Streptococcus pneumoniae [21]) [mg/kg] | ED50 (Streptococcus pyogenes [22]) [mg/kg] | ED50 (Streptococcus pyogenes [23]) [mg/kg] | ED50 (Staphylococcus aureus [25]) [mg/kg] | other results |
| --- | --- | --- | --- | --- | --- | --- | --- | --- | --- | --- | --- | --- | --- | --- | --- | --- | --- | --- |
| CC1(C)SC2C(NC(=O)C(N)c3ccc4c(c3)OCO4)C(=O)N2C1C(=O)O (stereo unspecified) | > 100 | > 100 | 25 (≈ 63.5 µM) | 25 (≈ 63.5 µM) | 1.6 (≈ 4.07 µM) | 0.1 (≈ 0.254 µM) | ≤ 0.03 | 3.1 (≈ 7.88 µM) | ≤ 0.03 | 6.2 (≈ 15.8 µM) | 100 (≈ 254 µM) | – | – | – | – | – | – | ED50 (Mus musculus [2]): 0.25 mg/kg; ED50 (Mus musculus [3]): 0.53 mg/kg; ED50 (Mus musculus [4]): 0.35 mg/kg; ED50 (Mus musculus [5]): 0.16 mg/kg; ED50 (Mus musculus [6]): 0.078 mg/kg; ED50 (Mus musculus [7]): 0.25 mg/kg; ED50 (Mus musculus [8]): 0.29 mg/kg; ED50 (Mus musculus [9]): 0.06 mg/kg; ED50 (Mus musculus [10]): 0.22 mg/kg; ED50 (Mus musculus [11]): 0.13 mg/kg; ED50 (Mus musculus [12]): < 0.063 mg/kg; MIC (Pseudomonas aeruginosa): > 100 µg/mL; ED50 (Mus musculus [17]): 0.32 mg/kg |
| CC1=C(C(=O)O)N2C(=O)C(NC(=O)C(N)c3cccc4c3OCO4)C2SC1 (stereo unspecified) | > 200 | > 200 | > 200 | > 200 | 100 (≈ 255 µM) | 3.1 (≈ 7.92 µM) | 0.4 (≈ 1.02 µM) | > 200 | 6.2 (≈ 15.8 µM) | > 200 | 6.2 (≈ 15.8 µM) | – | – | – | – | – | – | – |
| CC1=C(C(=O)O)N2C(=O)C(NC(=O)[C@H](N)c3ccc4c(c3)OCCO4)C2SC1 (stereo partly specified) | > 100 | > 100 | > 100 | > 100 | 50 (≈ 123 µM) | 0.8 (≈ 1.97 µM) | 0.4 (≈ 0.987 µM) | > 100 | 0.8 (≈ 1.97 µM) | 100 (≈ 247 µM) | 3.1 (≈ 7.65 µM) | 1.5 | 15 | 14 | 1 | 0.81 | 0.5 | ED50 (Mus musculus [24]): 8.3 mg/kg |
| CC1=C(C(=O)O)N2C(=O)C(NC(=O)[C@H](N)c3ccc4c(c3)CCO4)C2SC1 (stereo partly specified) | > 100 | > 100 | 50 (≈ 128 µM) | > 100 | 12.5 (≈ 32.1 µM) | 0.4 (≈ 1.03 µM) | 0.2 (≈ 0.514 µM) | > 100 | 0.4 (≈ 1.03 µM) | 25 (≈ 64.2 µM) | 1.6 (≈ 4.11 µM) | 0.63 | 8.6 | 10 | 0.37 | 0.34 | 0.67 | Tmax [26]: 10 min; ED50 (Mus musculus [24]): 7 mg/kg |
| N[C@H](C(=O)NC1C(=O)N2C(C(=O)O)=C(CSc3c[nH]nn3)CSC12)c1ccc2c(c1)OCO2 (stereo partly specified) | – | – | > 50 | > 50 | 50 (≈ 102 µM) | 6.2 (≈ 12.6 µM) | 1.6 (≈ 3.26 µM) | > 100 | – | > 50 | – | – | – | – | – | – | – | – |
| Cc1nnc(SCC2=C(C(=O)O)N3C(=O)C(NC(=O)[C@@H](N)c4ccc5c(c4)OCO5)C3SC2)s1 (stereo partly specified) | – | – | > 100 | > 100 | 50 (≈ 95.9 µM) | 6.2 (≈ 11.9 µM) | 0.8 (≈ 1.53 µM) | > 100 | 0.8 (≈ 1.53 µM) | > 100 | – | – | – | – | – | – | – | – |
| CC1=C(C(=O)O)N2C(=O)C(NC(=O)[C@@H](N)c3ccc4c(c3)OCO4)C2SC1 (stereo partly specified) | – | – | > 100 | > 100 | > 100 | 25 (≈ 63.9 µM) | 12.5 (≈ 31.9 µM) | > 100 | 50 (≈ 128 µM) | > 100 | – | – | – | – | – | – | – | – |
| Cc1nnc(SCC2=C(C(=O)O)N3C(=O)C(NC(=O)[C@H](N)c4ccc5c(c4)CCO5)C3SC2)s1 (stereo partly specified) | > 100 | 25 (≈ 48.1 µM) | 12.5 (≈ 24.1 µM) | > 100 | 6.2 (≈ 11.9 µM) | 0.8 (≈ 1.54 µM) | 0.05 (≈ 0.0962 µM) | 100 (≈ 192 µM) | ≤ 0.03 | 6.2 (≈ 11.9 µM) | 3.1 (≈ 5.97 µM) | 0.88 | 1.6 | 0.89 | 0.78 | 0.44 | 1.8 | ED50 (Escherichia coli [27]): 20 mg/kg; ED50 (Escherichia coli [28]): 9.3 mg/kg; ED50 [29]: 31 mg/kg; ED50 [30]: 23 mg/kg |
| CC(=O)OCC1=C(C(=O)O)N2C(=O)C(NC(=O)[C@H](N)c3ccc4c(c3)CCO4)C2SC1 (stereo partly specified) | 100 (≈ 223 µM) | 100 (≈ 223 µM) | 25 (≈ 55.9 µM) | 50 (≈ 112 µM) | 3.1 (≈ 6.93 µM) | 0.8 (≈ 1.79 µM) | 0.1 (≈ 0.223 µM) | 50 (≈ 112 µM) | 0.1 (≈ 0.223 µM) | 6.2 (≈ 13.9 µM) | 3.1 (≈ 6.93 µM) | – | – | – | – | – | – | – |
| CC1(C)SC2C(NC(=O)[C@H](N)c3ccc4c(c3)CCO4)C(=O)N2C1C(=O)O (stereo partly specified) | > 100 | > 100 | 25 (≈ 63.9 µM) | 12.5 (≈ 31.9 µM) | 1.6 (≈ 4.09 µM) | 0.05 (≈ 0.128 µM) | ≤ 0.03 | 3.1 (≈ 7.92 µM) | ≤ 0.03 | 6.2 (≈ 15.8 µM) | 100 (≈ 255 µM) | – | – | – | – | – | – | ED50 (Mus musculus [2]): 0.41 mg/kg; ED50 (Mus musculus [3]): 0.89 mg/kg; ED50 (Mus musculus [4]): 0.22 mg/kg; ED50 (Mus musculus [5]): 0.14 mg/kg; ED50 (Mus musculus [6]): 0.078 mg/kg; ED50 (Mus musculus [7]): 0.16 mg/kg; ED50 (Mus musculus [8]): 0.084 mg/kg; ED50 (Mus musculus [9]): 0.053 mg/kg; ED50 (Mus musculus [10]): 0.11 mg/kg; ED50 (Mus musculus [11]): 0.07 mg/kg; ED50 (Mus musculus [12]): 0.063 mg/kg; MIC (Pseudomonas aeruginosa): > 100 µg/mL; ED50 (Mus musculus [17]): 0.4 mg/kg |
